From US20220378763A1, “COMPOUND FOR TREATMENT OF ACUTE INFLAMMATION IN THE MYOCARDIUM” (CALPROTECT AB, priority 2019, published 2022)

How the values were obtained:
Type in all cases: in vivo, mouse
[1] = system: C57BL/6 mice with MI induced by permanent coronary artery ligation; assay: Quantitative PCR of whole heart tissue 3 days post-MI
Protocol: Total RNA was isolated from whole heart tissue using the TRI Reagent™ Solution (Invitrogen) according to the manufacturer's instructions. cDNA was generated from 2 μg of total RNA per sample using the High Capacity RNA to cDNA™ Kit (Applied Biosystems™). Quantitative real-time TaqMan PCR was performed using the following TaqMan primers (Applied Biosystems): Il-1b (Mm00434228_m1), Arg-1 (Mm00475988_m1), Ym-1 (Mm00657889_mH), Cc/5 (Mm01302427_m1), Tnf-α (Mm00443258_m1), Il-12 (Mm01288989_m1), IFN-γ (Mm01168134_m1), Il-10 (Mm00439614_m1), TGF-β (Mm01178820_m1), Il-4 (Mm00445259_m1) and housekeeping gene Hypoxantine-guanine phosphoribosyltransferase (HPRT) (Mm01324427_m1). Quantitative PCR was run on a ViiA7 Real-Time PCR System (Applied Biosystems) and data were quantified with the 2^−ΔCt method.
In order to assess the effects of the treatment on the post-MI cardiac environment, we performed qPCR analysis of mRNA encoding for proteins involved in myocardial inflammation and repair. The analysis was done in whole heart tissue collected at 3 days post-MI from mice receiving ABR-238901 or PBS (n=5 mice per group). […] The expression of IL-1β, TNFα, IL-10 and TGFβ was not affected at this stage (FIG. 3C, D, H). […] As neutrophils are the main producers of S100A8/A9, this effect is in line with the blunted local and systemic neutrophil response to MI observed in ABR-238901-treated mice (FIG. 2A, H).

[2] = system: α-MHC-mCherry mice with MI; assay: Efferocytosis of mCherry+ cardiomyocytes by heart macrophages, 7 days post-MI; conditions: treatment for 7 days post-MI
Text: All mouse studies were approved by the Animal Research Ethics Committee of Lund University. C57BL/6NRJ mice were purchased from Janvier Labs, C57BL/6-Tg(Nr4a1-EGFP/cre)820Khog/J (Nur77-EGFP) and B6;D2-Tg(Myh6*-mCherry)2Mik/J (α-MHC-mCherry) were purchased from the Jackson Laboratory. Nur77-EGFP mice express the fluorescent EGFP protein under the Nur77 promoter. α-MHC-mCherry mice express the red fluorescent Cherry protein under the mouse alpha myosin heavy-chain promoter in cardiomyocytes. We used 8-12 weeks old female mice in all experiments. MI was induced by left coronary artery ligation using a minimal thoracotomy model. Mice were initially anesthetized with 4% isoflurane and the surgical procedure was performed under 1.7% isoflurane. Following heart exposure outside of the thorax through a small thoracic incision, the left coronary artery was permanently ligated using silk 6.0 suture, the heart repositioned, and the thorax was closed with 6.0 prolene monofilament suture.
In an attempt to explain these intriguing results, we assessed the effects of the extended treatment on the presence of myeloid cells in blood, spleen, bone marrow and myocardium, with particular emphasis on cellular populations involved in myocardial repair. The cellular infiltration was analysed by flow cytometry on day 7, at the peak of the reparatory post-MI period. […]

[3] = system: BALB/c mice with induced myocarditis; assay: Myocarditis induced by cardiac α-myosin peptide: echocardiography; conditions: 30 mg/kg/day orally from day 7
Protocol: Female BALB/c mice, 8 weeks of age, were purchased from Taconic and housed under 12 h:12 h light:dark cycles with access to food and water ad libitum. To induce myocarditis, all mice were injected subcutaneously (s.c.) with 100 μg murine cardiac a-myosin heavy chain peptide (Ac-RSLKLMATLFSTYASADR-OH, Anaspec) emulsified 1:1 in complete Freund's adjuvant containing 1 mg/mL heat-killed Mycobacterium tuberculosis H37Ra (Sigma-Aldrich), on days 0 and 7 (FIG. 17A). ABR-238901 was administered orally ad-libitum diluted in meglumine buffer (to prevent precipitation in the drinking bottle during the course of the experiment) at a dose of 30 mg/kg/day, starting on day 7 and throughout the course of the experiment (n=9 mice). Fluid intake was closely monitored during the experiment to ensure an appropriate drug dosage. Mice with induced myocarditis drinking meglumine buffer alone ad-libitum were used as controls (n=12 mice). Mice received daily attendance to ensure their well-being. All mouse studies were approved by the Animal Research Ethics Committee of Lund University.
Transthoracic echocardiography was performed as described under Example 7. Cardiac function was evaluated by echocardiography at baseline and at 21, 28 and 35 days after the first injection of murine cardiac a-myosin heavy chain peptide.

Question: For COc1ncc(S(=O)(=O)Nc2cncc(Cl)c2O)cc1Br [ABR-238901, 5-bromo-N-(5-chloro-4-hydroxypyridin-3-yl)-6-methoxypyridine-3-sulfonamide], which “Gene expression of the chemokine CCL5/RANTES in heart” value [1] is on record?
Answer: inhibited

Question: And the “IL-1β expression in heart” value [1]?
Answer: not affected

Question: And the “IL-10 expression in heart” value [1]?
Answer: not affected

Question: And the “TGFβ expression in heart” value [1]?
Answer: not affected

Question: And the “TNFα expression in heart” value [1]?
Answer: not affected

Question: What about the “Arg-1 mRNA expression in heart” value ([1]; vs MI controls) of the same compound?
Answer: enhanced

Question: What about the “IFN-γ mRNA expression in heart” value ([1]; vs MI controls) of the same compound?
Answer: inhibited

Question: What about the “IL-4 mRNA expression in heart” value ([1]; vs MI controls) of the same compound?
Answer: enhanced

Question: And the “IL-12 mRNA expression in heart” value ([1]; vs MI controls)?
Answer: inhibited

Question: What about the “Ym-1 mRNA expression in heart” value ([1]; vs MI controls) of the same compound?
Answer: enhanced

Question: What about the “Reduction of the number of macrophages having phagocytosed mCherry+ cardiomyocytes” value [2] of the same compound?
Answer: approximately 50%

Question: And the “mCherry mean fluorescent intensity (MFI) in MerTKhi and MerTKlo macrophages” value [2]?
Answer: did not affect

Question: What about the Cardiac output ([3]; day 28) of the same compound?
Answer: 11.26 mL/min

Question: And the “Left ventricular ejection fraction (LVEF)” value ([3]; day 28)?
Answer: 52%

Question: And the Cardiac output ([3]; day 35)?
Answer: 12.03 mL/min

Question: And the “Left ventricular ejection fraction (LVEF)” value ([3]; day 35)?
Answer: 53%
